Measurements reported in patent US12534439B2, “Xanthohumol derivatives and methods for making and using” (Oregon State University, priority 2021, dated 2026).

How the values were obtained:
UCP1 = experiment: Western blotting of UCP1 in skeletal muscle, BAT and WAT; assay type: in vivo; conditions: HFD-fed mice, versus control
Method: Western Blotting. Approximately 100 mg of frozen BAT and WAT was homogenized in RIPA buffer with protease and phosphatase inhibitors (Santa Cruz Biotechnology, Dallas, TX, USA). Tissues were sonicated for 30 seconds, and the homogenates were centrifuged at 15700 g for 10 minutes to collect the supernatants. Protein (30 μg) was separated by SDS-PAGE using 4-15% MP TGX Gels (Bio-Rad, Hercules, CA, USA) and blotted onto nitrocellulose membranes. The membranes were blocked with 5% nonfat milk for 90 minutes and incubated with antibodies against GAPDH (#0411, Santa Cruz Biotechnology, Dallas, TX, USA) or UCP1 (#10983, Genetex, Irvine, CA, USA) for 60 minutes. After a second reaction with secondary antibodies (horseradish peroxidase-conjugated IgG antibodies), the protein bands on the nitrocellulose membranes were visualized by enhanced chemiluminescence substrate on an electrochemical luminescence (ECL) imager (Thermo Fisher Scientific, Waltham, MA, USA). Band intensities were quantified by densitometry using Image J software.

C2Cl2 cells = experiment: JC-1 mitochondrial membrane potential assay; assay type: cell-based, murine; conditions: compared with FCCP
Method: Mitochondrial respiration is coupled to ATP synthesis through an electrochemical proton gradient. Proton leak across the inner membrane results in depolarization of the mitochondrial transmembrane without deleteriously lowering the ATP synthesis. Proton leak can be mediated by UCPs and leads to the dissipation of the energy derived from substrate oxidation as heat. Considering the XP and XN effect on EE, the thermogenic activity was evaluated by assessing changes in UCP1 protein expression in the skeletal muscle, BAT, and WAT of HFD-fed mice. Unexpectedly, XP had no effect in UCP1 in the skeletal muscle, BAT, or WAT of HFD-fed mice (FIG. 18A). […] Therefore, the XP intrinsic protonophore properties were investigated by measured variations of mitochondrial membrane potential (ΔψM) in C2Cl2 cells stained with JC-1 dye. […]
Measure of Metabolic Activity. […] Metabolic measurements such as EE and respiratory exchange […] (calculated from the ratio of CO2 volume produced and O2 volume consumed) were measured. Motor activity and food intake were also recorded. […] JC-1 aggregates were detected with excitation and emission wavelengths of 540 and 570 nm. JC-1 monomers were detected with excitation and emission wavelengths of 485 and 535 nm on a BioTek Synergy HT plate reader.

HFD-fed C57BL/6J mice [1] = experiment: Metabolic cages: indirect calorimetry, energy expenditure, motor activity; assay type: in vivo; conditions: for All movements (direct locomotion and fine movements) versus control: three dark and two light cycles; for Mean respiratory exchange ratio (RER) versus control: week 6; for Increase of mean energy expenditure (EE): week 6, normalized on body weight, dark and light cycles
Method: Measure of Metabolic Activity. Metabolic determinations were performed at week 6, with four mice from each treatment group housed in Promethion metabolic cages (Sable Systems, Las Vegas, NV, USA). The indirect calorimetry system consists of metabolic cages identical to regular cages with bedding, each equipped with food hoppers connected to load cells for food intake monitoring. Prior to data collection, all mice were acclimated to the cages for 8 hours. A standard 12 hours light/dark cycle was maintained throughout the calorimetry studies, and data was collected over three dark cycles and two light cycles. Metabolic measurements such as EE and respiratory exchange […] (calculated from the ratio of CO2 volume produced and O2 volume consumed) were measured. Motor activity and food intake were also recorded. JC-1 Mitochondrial Membrane Potential Assay. C2Cl2 cells were seeded in 96-well plates at 1×10^4 cells/mL. After 24 hours, the culture medium was replaced with fresh medium containing carbonyl cyanide p-(trifluoromethoxy) phenylhydrazone (FCCP) from Sigma-Aldrich (St Louis, MO, USA), XP, XN, or DMSO vehicle. Cells were incubated in the presence of the treatments for 1 h and 5,5′,6,6′-tetrachloro-1,1′,3,3′-tetraethylbenzimidazolylcarbocyanine iodide (JC-1) dye was added to each well following the manufacturer's protocol (Cayman Chemical, Ann Arbor, MI, USA). JC-1 aggregates were detected with excitation and emission wavelengths of 540 and 570 nm. JC-1 monomers were detected with excitation and emission wavelengths of 485 and 535 nm on a BioTek Synergy HT plate reader.

HFD-fed C57BL/6J mice [2] = experiment: HFD feeding study: body weight, glucose tolerance test, plasma metabolic parameters; assay type: in vivo; conditions: for Final body weight: 11 weeks of HFD ± test compound; for Weight gain over the feeding period versus control HFD-fed mice: XP 30, XN 60 mg/kg body weight/day in HFD; for Glucose tolerance test (GTT) versus control: after 4 weeks of feeding, 6 hours fasting, 1.5 g/kg D-glucose i.p.; for Initial body weight: male mice, HFD ± test compound; for IL-6 / Insulin / MCP1 / PCSK9: plasma
Method: Animal Studies. All animal experiments were performed in accordance with institutional and National Health and Medical Research Council guidelines. The experimental protocol was approved by the Institutional Animal Care and Use Committee at Oregon State University and the studies were carried out in accordance with the approved protocol. Nine-week-old wildtype male C57BL/6J mice were obtained from Jackson Laboratory (Bar Harbor, ME, USA). Mice were single-housed in ventilated cages under a 12-12 h light-dark cycle and fed a HFD (Dyets Inc., Bethlehem, PA, USA) containing 60, 20, and 20% total calories from fat, carbohydrate, and protein, respectively. XN (99% purity, Hopsteiner Inc., New York, NY, USA) and XP (99% purity) were mixed into the diet at a concentration of 0.066% for XN and 0.033% for XP to reach respective doses of 60 mg/kg body weight/day and 30 mg/kg body weight/day. Studies included eight HFD-fed mice, eight XP-treated mice, and four XN-treated mice; food intake and body weights were recorded weekly. At week 4, glucose tolerance was tested after 6 hours fasting. Following intraperitoneal bolus injection of 1.5 g/kg of D-glucose, blood glucose levels were measured at 0, 15, 30, 60, and 120 minures using a One Touch UltraMini glucometer (LifeScan Inc., Milpitas, CA, USA). At the end of 11 weeks of feeding, mice were euthanized, and blood, liver, BAT, epididymal WAT, and cortex samples were collected for analyses.
Tris (pH=7.8) per gram of tissue. The homogenates were centrifuged at 10 000 g for 15 minutes at 4° C., and the supernatants were tested for ALT and AST activity using colorimetric assay kits purchased from Cayman Chemical (Ann Arbor, MI, USA). Triglycerides and total cholesterol were analyzed with commercially available kits (Cayman Chemical, Ann Arbor, MI, USA). Plasma glucose at week 11 was measured with a colorimetric assay, and plasma insulin, MCP-1, IL-6, and PCSK9 were analyzed by ELISA kits purchased from Abcam (Cambridge, UK).

Row | SMILES | Effect on JC-1 aggregates/monomers ratio (C2Cl2 cells) | All movements (direct locomotion and fine movements) versus control (HFD-fed C57BL/6J mice [1]) | Mean respiratory exchange ratio (RER) versus control (HFD-fed C57BL/6J mice [1]) | Increase of mean energy expenditure (EE) (HFD-fed C57BL/6J mice [1]; versus control) | Plasma concentrations of PCSK9 versus control (HFD-fed C57BL/6J mice [2]; 11 weeks) | Final body weight (HFD-fed C57BL/6J mice [2]; mean ± SEM) [g] | Fasting glucose (HFD-fed C57BL/6J mice [2]; 11 weeks, mean ± SEM) [mg/dL] | Plasma cholesterol (HFD-fed C57BL/6J mice [2]; 11 weeks, mean ± SEM) [mg/dL] | Weight gain over the feeding period versus control HFD-fed mice (HFD-fed C57BL/6J mice [2]) | Glucose tolerance test (GTT) versus control (HFD-fed C57BL/6J mice [2]) | Initial body weight (HFD-fed C57BL/6J mice [2]; mean ± SEM) [g] | IL-6 (HFD-fed C57BL/6J mice [2]; 11 weeks, mean ± SEM) [pg/mL] | Insulin (HFD-fed C57BL/6J mice [2]; 11 weeks, mean ± SEM) [μU/mL] | MCP1 (HFD-fed C57BL/6J mice [2]; 11 weeks, mean ± SEM) [pg/mL] | PCSK9 (HFD-fed C57BL/6J mice [2]; 11 weeks, mean ± SEM) [ng/mL] | further results
1 | COc1cc(O)c(CC=C(C)C)c(O)c1C(=O)/C=C/c1ccc(O)cc1 [XN, xanthohumol] | dose-dependent and milder than that of protonophore FCCP | increased | increased | 4-8% | not affected | 44.25 ± 1.97 | 142.67 ± 6.29 | 170.88 ± 6.76 | no change in weight | no effect on glucose clearance | 26.37 ± 0.22 | 5.03 ± 3.3 | 71.17 ± 34.38 | 57.34 ± 15.74 | 215 ± 35.12 | UCP1 protein expression in WAT (UCP1): decreased; UCP1 protein expression in skeletal muscle and BAT (UCP1): no significant changes; Locomotor movement increased versus control (HFD-fed C57BL/6J mice [1]; p=0.06): not; Plasma TGs versus control (HFD-fed C57BL/6J mice [2]; 11 weeks): increase; HOMA-IR (HFD-fed C57BL/6J mice [2]; 11 weeks, mean ± SEM): 26.76 ± 13.47
2 | COc1cc(O)c(CC=C(C)C)c(O)c1-c1cc(-c2ccc(O)cc2)n(C)n1 [XP, 4-(5-(4-hydroxyphenyl)-1-methyl-1H-pyrazol-3-yl)-5-methoxy-2-(3-methylbut-2-en-1-yl)benzene-1,3-diol] | dose-dependent and milder than that of protonophore FCCP | increased | increased | up to 27% | not affected | 37.87 ± 1.72 | 128.98 ± 7.18 | 160.47 ± 4.73 | gained significantly less weight | improved glucose tolerance | 23.66 ± 0.70 | 5.78 ± 2.04 | 34.36 ± 3.73 | 45.00 ± 4.68 | 217.166 ± 26.88 | UCP1 protein expression in skeletal muscle, BAT, or WAT (UCP1): no effect; Percent ambulatory time versus control (HFD-fed C57BL/6J mice [1]; mouse, in vivo): increased; Increase of locomotor movement (direct locomotion) (HFD-fed C57BL/6J mice [1]; versus control): 75-135%; Increase of mean energy expenditure (EE) (HFD-fed C57BL/6J mice [1]; versus control, listed as 4-(5-(4-hydroxyphenyl)-1-methyl-1h-pyrazol-3-yl)-5-methoxy-2-(3-methylbut-2-en-1)): 20-27%; IL-6 plasma level versus control (HFD-fed C57BL/6J mice [2]; 11 weeks): not significantly different; MCP-1/CCL2 plasma levels versus control (HFD-fed C57BL/6J mice [2]; 11 weeks): not decreased; Triglycerides (TG) and total cholesterol concentrations in plasma versus control (HFD-fed C57BL/6J mice [2]; 11 weeks): no changes; Plasma TG (HFD-fed C57BL/6J mice [2]; 11 weeks, mean ± SEM): 81.81 ± 4.33 mg/dL; Decrease of HOMA-IR (insulin resistance score) (HFD-fed C57BL/6J mice [2]; after 11 weeks of feeding, versus control): 77.9%; Fasting glucose a (HFD-fed C57BL/6J mice [2]; measured at 4 weeks, mean ± SEM): 143.62 ± 7.54 mg/dL
